The results in this text go back to US9376418B2, “Substituted pyridine spleen tyrosine kinase (SYK) inhibitors” (Merck Sharp & Dohme Corp., priority 2012, dated 2016).

The first experiment concerns the target T1, recombinant human GST-SYK (Homo sapiens, UniProt P43405).
T1 construct: purchased Carna Biosciences 08-176
Briefly: Homogeneous Time-Resolved Fluorescence (HTRF) assay for the recombinant human Syk enzyme. As to conditions: HTRF assay, recombinant human GST-SYK; IC50 given as class symbols; read-out: rhSYK Activity. It counts as biochemical. The procedure, abridged: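 GST-hSYK ([…]) was preincubated with inhibitor (0.1% DMSO) for 10 min at room temperature in Tris-HCl pH 7.5 with tween 20 and DTT. Biotinylated peptide (250 nM), Mg (5 mM) and ATP (25 μM) were added for 45 min. The reaction was quenched with EDTA, and phosphotyrosine was read by Eu-antibody/SA-APC HTRF after 30 min.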
For orientation: Time-resolved FRET reads energy transfer from a long-lived donor to a nearby acceptor.
With `Cc1cc(Nc2nccc(C(F)(F)F)n2)cc(-c2ccc(C(C)(O)CO)nc2)c1` (centres unmarked) [Example 9.1, 2-[5-(3-Methyl-5-{[4-(trifluoromethyl)pyrimidin-2-yl]amino}phenyl)pyridin-2-yl]propane-1,2-diol], the IC50 was less than 100 nM.
Same read-out and setting: for `CC(=O)Nc1cc(Nc2nccc(C(F)(F)F)n2)cc(-c2ccc(N3CCNC(=O)C3)nc2)c1` [Example 7.5, N-(3-[6-(3-oxopiperazin-1-yl)pyridin-3-yl]-5-{[4-(trifluoromethyl)pyrimidin-2-yl]amino}phenyl)acetamide] the value was less than 100 nM; for `Cc1cc(Nc2nccc(C(F)(F)F)n2)cc(-c2ccc(C(=O)NCC(C)(C)O)nc2)c1` [Example 16.10, N-(2-hydroxy-2-methylpropyl)-5-(3-methyl-5-{[4-(trifluoromethyl)pyrimidin-2-yl]amino}phenyl)pyridine-2-carboxamide], 100 to 1000 nM.
Consider `Cc1cc(Nc2nccc(C(F)(F)F)n2)cc(-c2cncc([C@]3(O)CC[C@H](C(=O)O)CC3)c2)c1` [Example 9.70, trans-4-hydroxy-4-[5-(3-methyl-5-{[4-(trifluoromethyl)pyrimidin-2-yl]amino}phenyl)pyridin-3-yl]cyclohexanecarboxylic acid], for which the IC50 was less than 100 nM.
As for `COc1ccc(-c2cc(C)cc(Nc3nccc(C(F)(F)F)n3)c2)cn1` [Example 4.5, N-[3-(6-methoxypyridin-3-yl)-5-methylphenyl]-4-(trifluoromethyl)pyrimidin-2-amine], the IC50 lay in the range of 100 to 1000 nM.
Still for that read-out and setting: for `Cc1cc(Nc2nccc(C(F)(F)F)n2)cc(-c2ccc(Oc3ccc(C(N)=O)cc3)nc2)c1` [Example 12.3, 4-{[5-(3-Methyl-5-{[4-(trifluoromethyl)pyrimidin-2-yl]amino}phenyl)pyridin-2-yl]oxy}benzamide] the value was 100 to 1000 nM.
Consider `CCN1CCN(c2ccc(-c3cc(C)cc(Nc4nccc(C(F)(F)F)n4)c3)cn2)CC1` [Example 7.49, N-{3-[6-(4-ethylpiperazin-1-yl)pyridin-3-yl]-5-methylphenyl}-4-(trifluoromethyl)pyrimidin-2-amine], for which the IC50 lay within 100 to 1000 nM.
The same measure, in the same setting: next, `COc1ccnc(Nc2cc(C)cc(-c3cc(CCC(=O)O)ccn3)c2)n1` [Example 2.21, 3-(2-{3-[(4-methoxypyrimidin-2-yl)amino]-5-methylphenyl}pyridin-4-yl)propanoic acid]: less than 100 nM; `Cc1cc(Nc2nccc(C(F)(F)F)n2)cc(-c2ccc(C(=O)N(C)CC(O)CO)nc2)c1` (centres unmarked) [Example 16.56, N-(2,3-dihydroxypropyl)-N-methyl-5-(3-methyl-5-{[4-(trifluoromethyl)pyrimidin-2-yl]amino}phenyl)pyridine-2-carboxamide]: less than 100 nM; `COCC1CCCN1c1ccc(-c2cc(C)cc(Nc3nccc(C(F)(F)F)n3)c2)cn1` (centres unmarked) [Example 7.54, N-(3-{6-[2-(methoxymethyl)pyrrolidin-1-yl]pyridin-3-yl}-5-methylphenyl)-4-(trifluoromethyl)pyrimidin-2-amine]: 100 to 1000 nM.
Same read-out and setting: for `Cc1cc(Nc2nccc(C(F)(F)F)n2)cc(-c2ccnc(NC(C)(C)CO)c2)c1` [Example 15.51, 2-methyl-2-{[4-(3-methyl-5-{[4-(trifluoromethyl)pyrimidin-2-yl]amino}phenyl)pyridin-2-yl]amino}propan-1-ol] the value was less than 100 nM; for `CCN1CCN(c2cc(-c3cc(C)cc(Nc4nccc(C(F)(F)F)n4)c3)ccn2)CC1` [Example 15.64, N-{3-[2-(4-ethylpiperazin-1-yl)pyridin-4-yl]-5-methylphenyl}-4-(trifluoromethyl)pyrimidin-2-amine], 100 to 1000 nM.
Turning to `Cc1cc(Nc2nccc(C)n2)cc(-c2ccc(N[C@H]3CC[C@H](C(=O)O)CC3)nc2)c1` [Example 2.106, trans-4-[(5-{3-methyl-5-[(4-methylpyrimidin-2-yl)amino]phenyl}pyridin-2-yl)amino]cyclohexanecarboxylic acid], the IC50 was less than 100 nM.
Same read-out and setting: next, `Cc1cc(Nc2nccc(C(F)(F)F)n2)cc(-c2ccc(NCCc3cnc[nH]3)nc2)c1` [Example 7.24, N-[3-(6-{[2-(1H-imidazol-4-yl)ethyl]amino}pyridin-3-yl)-5-methylphenyl]-4-(trifluoromethyl)pyrimidin-2-amine]: 100 to 1000 nM.
Same read-out and setting: next, `Cc1cc(Nc2nccc(C(F)(F)F)n2)cc(-c2ccc(N3CC(C(=O)O)C3)nc2)c1` [Example 7.133, 1-[5-(3-methyl-5-{[4-(trifluoromethyl)pyrimidin-2-yl]amino}phenyl)pyridin-2-yl]azetidine-3-carboxylic acid]: less than 100 nM; `Cc1cc(Nc2nccc(C(F)(F)F)n2)cc(-c2ccc(C(C)(O)c3ccc(C(=O)O)cc3)nc2)c1` (centres unmarked) [Example 9.20, 4-{1-hydroxy-1-[5-(3-methyl-5-{[4-(trifluoromethyl)pyrimidin-2-yl]amino}phenyl)pyridin-2-yl]ethyl}benzoic acid]: less than 100 nM; `COc1ccnc(Nc2cc(C)cc(-c3cncc(CCC(=O)O)c3)c2)n1` [Example 2.84, 3-(5-{3-[(4-methoxypyrimidin-2-yl)amino]-5-methylphenyl}pyridin-3-yl)propanoic acid]: less than 100 nM.
Take `COc1ccnc(Nc2cc(C)cc(-c3cccc(CCC(=O)O)n3)c2)n1` [Example 2.2]: the IC50 was less than 100 nM.
The same measure, in the same setting: next, `CCOC(=O)Cc1ccc(-c2cccc(Nc3nccc(C(F)(F)F)n3)c2)nc1` [Example 2.5, ethyl [6-(3-{[4-(trifluoromethyl)pyrimidin-2-yl]amino}phenyl)pyridin-3-yl]acetate]: 100 to 1000 nM; `Cc1cc(Nc2nccc(C(F)(F)F)n2)cc(-c2ccnc(N3CCCC4(CCCNC4=O)C3)c2)c1` (centres unmarked) [Example 15.27, 8-[4-(3-methyl-5-{[4-(trifluoromethyl)pyrimidin-2-yl]amino}phenyl)pyridin-2-yl]-2,8-diazaspiro[5.5]undecan-1-one]: less than 100 nM; `Cc1cc(Nc2nccc(C(F)(F)F)n2)cc(-c2ccc(O)nc2)c1` [Example 4.8, 5-(3-methyl-5-{[4-(trifluoromethyl)pyrimidin-2-yl]amino}phenyl)pyridin-2-ol]: 100 to 1000 nM.
On the same count and under the same terms, next, `Cc1cc(Nc2nccc(C(F)(F)F)n2)cc(-c2ccc(NCC(=O)NCC(=O)O)nc2)c1` [Example 7.138, N-[5-(3-methyl-5-{[4-(trifluoromethyl)pyrimidin-2-yl]amino}phenyl)pyridin-2-yl]glycylglycine]: less than 100 nM; `CCOC(=O)CCc1ccc(-c2cccc(Nc3nccc(C(F)(F)F)n3)c2)cn1` [Example 2.77, ethyl 3-[5-(3-{[4-(trifluoromethyl)pyrimidin-2-yl]amino}phenyl)pyridin-2-yl]propanoate]: 100 to 1000 nM.
On the same count and under the same terms, next, `Cc1cc(Nc2nccc(C(F)(F)F)n2)cc(-c2ccc(N[C@H](CO)C(=O)O)nc2)c1` [Example 7.108, N-[5-(3-methyl-5-{[4-(trifluoromethyl)pyrimidin-2-yl]amino}phenyl)pyridin-2-yl]-D-serine]: less than 100 nM; `Cc1cc(Nc2nccc(C(F)(F)F)n2)cc(-c2ccnc(N3CCC(F)(F)CC3)c2)c1` [Example 15.70, N-{3-[2-(4,4-difluoropiperidin-1-yl)pyridin-4-yl]-5-methylphenyl}-4-(trifluoromethyl)pyrimidin-2-amine]: 100 to 1000 nM.

Still in this experiment, the particulars now being: recombinant GST-hSYK, 25 μM ATP, HTRF; read-out: IC50 (inhibition of human Syk activity).
For the compound `Cc1cc(Nc2nccc(C(F)(F)F)n2)cc(-c2ccc(C(C)(O)CO)nc2)c1` (centres unmarked) [Example 9.1, 2-[5-(3-Methyl-5-{[4-(trifluoromethyl)pyrimidin-2-yl]amino}phenyl)pyridin-2-yl]propane-1,2-diol], the IC50 was found to be 17.9 nM.
